Measured values published in ChEMBL document CHEMBL4428075, “New antiproliferative 7-(4-(N-substituted carbamoylmethyl)piperazin-1-yl) derivatives of ciprofloxacin induce cell cycle arrest at G2/M phase” (Bioorg Med Chem, 2016).
Activity calls are given as the source filed them. The calls are words filed in the database; no cut-off is given here.

Legend:
K562 = assay: Antiproliferative activity against human K562 cells at 10^-5 M after 48 hrs by SRB assay; format: functional; settings: K562, 48 h, read-out: GI
TK-10 = assay: Antiproliferative activity against human TK10 cells at 10^-5 M after 48 hrs by SRB assay; format: functional; settings: TK-10, 48 h, read-out: GI
WI-38 [1] = assay: Downregulation of cdc2 expression in human WI38 cells at 5 to 25 uM after 24 hrs by Western blot analysis; format: ADME, cell-based; settings: wi-38, 24 h
A549 [2] = assay: Induction of cell cycle arrest in human A549 cells assessed accumulation at G2/M phase at 25 uM after 24 hrs in presence of PFTalpha by FITC-labeled anti-BrdU antibody/7AAD staining based FACS calibur flow cytometric analysis (reference value: 63.9%); format: functional
MCF7 = assay: Antiproliferative activity against human MCF7 cells at 10^-5 M after 48 hrs by SRB assay; format: functional; settings: MCF7, 48 h, read-out: GI
WI-38 [3] = assay: Antiproliferative activity against human WI38 cells after 24 hrs by BrdU incorporation assay; format: cell-based; settings: WI-38, 24 h
SNB-19 = assay: Antiproliferative activity against human SNB19 cells at 10^-5 M after 48 hrs by SRB assay; format: functional; settings: SNB-19, 48 h, read-out: GI
T47D = assay: Antiproliferative activity against human T47D cells at 10^-5 M after 48 hrs by SRB assay; format: functional; settings: read-out: GI
A549 [4] = assay: Induction of cell cycle arrest in human A549 cells assessed as accumulation at sub G1 phase at 25 uM after 24 hrs by FITC-labeled anti-BrdU antibody/7AAD staining based FACS calibur flow cytometric analysis (reference value: 0.82 %); format: functional
MDA-MB-231 = assay: Antiproliferative activity against human MDA-MB-231 cells at 10^-5 M after 48 hrs by SRB assay; format: functional; settings: MDA-MB-231, 48 h, read-out: GI
HL-60(TB) = assay: Antiproliferative activity against human HL-60(TB) cells at 10^-5 M after 48 hrs by SRB assay; format: functional; settings: HL-60, 48 h, read-out: GI
A549 [5] = assay: Induction of cell cycle arrest in human A549 cells assessed as accumulation at S phase at 25 uM after 24 hrs by FITC-labeled anti-BrdU antibody/7AAD staining based FACS calibur flow cytometric analysis (reference value: 20.9 %); format: functional
ACHN = assay: Antiproliferative activity against human ACHN cells at 10^-5 M after 48 hrs by SRB assay; format: functional; settings: read-out: GI
A549 [6] = assay: Induction of p53 expression in human A549 cells at 25 uM after 24 hrs in presence of PFTalpha by Western blot analysis; format: functional, cell-based
A549 [7] = assay: Downregulation of cdc2 expression in human A549 cells after 24 hrs by Western blot analysis; format: functional, cell-based
KM12 = assay: Antiproliferative activity against human KM12 cells at 10^-5 M after 48 hrs by SRB assay; format: functional; settings: KM12, 48 h, read-out: GI
MDA-MB-435 = assay: Antiproliferative activity against human MDA-MB-435 cells at 10^-5 M after 48 hrs by SRB assay; format: functional; settings: MDA-MB-435, 48 h, read-out: GI
A549 [8] = assay: Induction of cell cycle arrest in human A549 cells assessed as accumulation at G1 phase at 5 uM after 24 hrs by FITC-labeled anti-BrdU antibody/7AAD staining based FACS calibur flow cytometric analysis (reference value: 65.9 %); format: functional
A549 [9] = assay: Induction of cell cycle arrest in human A549 cells assessed as accumulation at S phase at 5 uM after 24 hrs by FITC-labeled anti-BrdU antibody/7AAD staining based FACS calibur flow cytometric analysis (reference value: 20.9 %); format: functional
A549 [10] = assay: Induction of cell cycle arrest in human A549 cells assessed as accumulation at G2/M phase after 24 hrs by FITC-labeled FACS calibur flow cytometric analysis; format: functional, cell-based
HCT-116 = assay: Antiproliferative activity against human HCT116 cells at 10^-5 M after 48 hrs by SRB assay; format: functional; settings: HCT-116, 48 h, read-out: GI
A549 [11] = assay: Upregulation of p53 expression in human A549 cells after 24 hrs by Western blot analysis; format: functional, cell-based
HT-29 = assay: Antiproliferative activity against human HT-29 cells at 10^-5 M after 48 hrs by SRB assay; format: functional; settings: HT-29, 48 h, read-out: GI
SR = assay: Antiproliferative activity against human SR cells at 10^-5 M after 48 hrs by SRB assay; format: functional; settings: read-out: GI
UO-31 = assay: Antiproliferative activity against human UO31 cells at 10^-5 M after 48 hrs by SRB assay; format: functional; settings: UO-31, 48 h, read-out: GI
SK-MEL-28 = assay: Antiproliferative activity against human SK-MEL-28 cells at 10^-5 M after 48 hrs by SRB assay; format: functional; settings: SK-MEL-28, 48 h, read-out: GI
CAKI-1 = assay: Antiproliferative activity against human Caki1 cells at 10^-5 M after 48 hrs by SRB assay; format: functional; settings: CAKI-1, 48 h, read-out: GI
LOX IMVI = assay: Antiproliferative activity against human LOXIMVI cells at 10^-5 M after 48 hrs by SRB assay; format: functional; settings: read-out: GI
WI-38 [12] = assay: Upregulation of p21 expression in human WI38 cells at 5 to 25 uM after 24 hrs by Western blot analysis; format: ADME, cell-based; settings: wi-38, 24 h
BT-549 = assay: Antiproliferative activity against human BT549 cells at 10^-5 M after 48 hrs by SRB assay; format: functional; settings: BT-549, 48 h, read-out: GI
HOP-92 = assay: Antiproliferative activity against human HOP92 cells at 10^-5 M after 48 hrs by SRB assay; format: functional; settings: HOP-92, 48 h, read-out: GI
WI-38 [13] = assay: Upregulation of p53 expression human WI38 cells at 5 to 25 uM after 24 hrs by Western blot analysis; format: ADME, cell-based; settings: wi-38, 24 h
Hs-578T = assay: Antiproliferative activity against human Hs 578T cells at 10^-5 M after 48 hrs by SRB assay; format: functional; settings: read-out: GI
A549 [14] = assay: Induction of cell cycle arrest in human A549 cells assessed as accumulation at S phase at 15 uM after 24 hrs by FITC-labeled anti-BrdU antibody/7AAD staining based FACS calibur flow cytometric analysis (reference value: 20.9 %); format: functional
NCI-H226 = assay: Antiproliferative activity against human NCI-H226 cells at 10^-5 M after 48 hrs by SRB assay; format: functional; settings: NCI-H226, 48 h, read-out: GI
OVCAR-8 = assay: Antiproliferative activity against human OVCAR8 cells at 10^-5 M after 48 hrs by SRB assay; format: functional; settings: OVCAR-8, 48 h, read-out: GI
A549 [15] = assay: Induction of cell cycle arrest in human A549 cells assessed accumulation at G2/M phase at 25 uM after 24 hrs by FITC-labeled anti-BrdU antibody/7AAD staining based FACS calibur flow cytometric analysis (reference value: 12%); format: functional

| Compound | inhibition of growth at 10 µM (K562) [%] | inhibition of growth at 10 µM (MCF7) [%] | IC50 (WI-38 [3]) [µM] | inhibition of growth at 10 µM (SNB-19) [%] | inhibition of growth at 10 µM (T47D) [%] | inhibition of growth at 10 µM (MDA-MB-231) [%] | inhibition of growth at 10 µM (HL-60(TB)) [%] | inhibition of growth at 10 µM (ACHN) [%] | inhibition of growth at 10 µM (KM12) [%] | inhibition of growth at 10 µM (MDA-MB-435) [%] | inhibition of growth at 10 µM (HCT-116) [%] | inhibition of growth at 10 µM (HT-29) [%] | inhibition of growth at 10 µM (SR) [%] | inhibition of growth at 10 µM (UO-31) [%] | inhibition of growth at 10 µM (SK-MEL-28) [%] | inhibition of growth at 10 µM (CAKI-1) [%] | inhibition of growth at 10 µM (LOX IMVI) [%] | inhibition of growth at 10 µM (BT-549) [%] | inhibition of growth at 10 µM (HOP-92) [%] | inhibition of growth at 10 µM (Hs-578T) [%] | also measured |
| --- | --- | --- | --- | --- | --- | --- | --- | --- | --- | --- | --- | --- | --- | --- | --- | --- | --- | --- | --- | --- | --- |
| O=C(CN1CCN(c2cc3c(cc2F)c(=O)c(C(=O)O)cn3C2CC2)CC1)Nc1ccc(Cl)cc1 | 31.9 | 5.73 | > 100 | 16.9 | 40.9 | 39.8 | 10.5 | 46.8 | 17.1 | 11.7 | 26.9 | 42.1 | 28.9 | 92.8 | 12.9 | 32.8 | 38.9 | 44.2 | 21.1 | 12.3 | inhibition of growth at 10 µM (TK-10): 13.9%; Activity (WI-38 [1]): Non-Toxic; Activity (A549 [2]): 23.7%; Activity (A549 [4]): 2.6%; Activity (A549 [5]): 10.5%; Activity (A549 [6]): inactive; Activity (A549 [7]): Dose-dependent effect; Activity (A549 [8]): 68.9%; Activity (A549 [9]): 16.2%; Activity (A549 [10]): Dose-dependent effect; Activity (A549 [11]): Dose-dependent effect; Activity (WI-38 [12]): Non-Toxic; Activity (WI-38 [13]): Non-Toxic; Activity (A549 [14]): 19.8%; inhibition of growth at 10 µM (NCI-H226): 19.9%; inhibition of growth at 10 µM (OVCAR-8): 21.2%; Activity (A549 [15]): 63.9% |
| COc1ccc(NC(=O)CN2CCN(c3cc4c(cc3F)c(=O)c(C(=O)O)cn4C3CC3)CC2)cc1 | 5.67 | 0 | > 100 | 12.3 | 24.5 | 13.8 | 0 | 0 | 6.61 | 1.51 | 9.38 | 0.04 | 0 | 17.8 | 2.72 | 0 | 39 | 5.78 | 5.92 | 5.32 | inhibition of growth at 10 µM (NCI-H226): 16.8%; inhibition of growth at 10 µM (OVCAR-8): 6% |
| COc1cc(NC(=O)CN2CCN(c3cc4c(cc3F)c(=O)c(C(=O)O)cn4C3CC3)CC2)cc(OC)c1OC | 2.65 | 0 | > 100 | 0 | 9.38 | 0 | 8.4 | 0 | 0 | 0 | 0 | 1.21 | 0 | 0 | 0 | 0 | 16.1 | 7.42 | 18.7 | 4.61 | inhibition of growth at 10 µM (TK-10): 10.5%; inhibition of growth at 10 µM (NCI-H226): 0%; inhibition of growth at 10 µM (OVCAR-8): 0% |
